Measured values as given in patent US12454516B2, “Nitric oxide releasing prodrugs of MDA and MDMA” (priority 2021, dated 2025).

Legend:
[1] = Stability in SGF without pepsin; assay type: in vitro ADME
[2] = Stability in SGF with pepsin; assay type: in vitro ADME
[3] = Stability of Prodrug 2-1 in plasma (human); assay type: in vitro ADME
[4] = Stability of Prodrug 2-1 in plasma (mouse); assay type: in vitro ADME
[5] = Stability of Prodrug 2-1 in plasma (rat); assay type: in vitro ADME
Solubility in FaSSIF = assay type: physicochemical; conditions: read-out: Solublity (uM) FaSSIF
physchem = conditions: buffer, pH 6.5

SMILES	Remaining Percentage (%) 0 min (Stability in PBS pH 6.5)	Remaining Percentage (%) 30 min (Stability in PBS pH 6.5)	Remaining Percentage (%) 60 min (Stability in PBS pH 6.5)	Remaining Percentage (%) 120 min (Stability in PBS pH 6.5)	Remaining Percentage (%) 240 min (Stability in PBS pH 6.5)	Remaining Percentage (%) 0 min [1]	Remaining Percentage (%) 30 min [1]	Remaining Percentage (%) 60 min [1]	Remaining Percentage (%) 120 min [1]	Remaining Percentage (%) 240 min [1]	Remaining Percentage (%) 0 min [2]	Remaining Percentage (%) 30 min [2]	Remaining Percentage (%) 60 min [2]	Remaining Percentage (%) 120 min [2]	Remaining Percentage (%) 240 min [2]	half-life [3]	Remaining Percentage (%) 0 min [3]	Remaining Percentage (%) 15 min [3]	Remaining Percentage (%) 30 min [3]	Remaining Percentage (%) 60 min [3]	further results
O=C(O)CCCc1ccc(N(CCCl)CCCl)cc1 [Chlorambucil, reference compound]	100%	62.6%	39.9%	15.07%	2.05%																
C[C@H](Cc1ccc2c(c1)OCO2)NC(=O)CCCO[N+](=O)[O-] [Compound 2-1, (R)-4-((1-(benzo[d][1,3]dioxol-5-yl)propan-2-yl)amino)-4-oxobutyl nitrate]	100%	104.05%	105.81%	98.20%	83.83%	100%	95.42%	99.51%	93.54%	81.87%	100%	98.88%	98.96%	89.53%	82.75%	15.1 h	100.00%	100.94%	102.03%	90.66%	half-life [1]: 14.3 h; half-life [2]: 13.5 h; Remaining Percentage (%) 120 min [3]: 93.79%; half-life [4]: 26.2 h; Remaining Percentage (%) 0 min [4]: 100.00%; Remaining Percentage (%) 15 min [4]: 95.13%; Remaining Percentage (%) 30 min [4]: 98.19%; Remaining Percentage (%) 60 min [4]: 95.02%; Remaining Percentage (%) 120 min [4]: 93.59%; half-life [5]: 3.84 h; Remaining Percentage (%) 0 min [5]: 100.00%; Remaining Percentage (%) 15 min [5]: 96.93%; Remaining Percentage (%) 30 min [5]: 93.53%; Remaining Percentage (%) 60 min [5]: 81.00%; Remaining Percentage (%) 120 min [5]: 70.84%; solubility (Solubility in FaSSIF): 284 µM; half-life (physchem): 13.4 h
CC[C@H]1OC(=O)[C@H](C)[C@@H](O[C@H]2C[C@@](C)(OC)[C@@H](O)[C@H](C)O2)[C@H](C)[C@@H](O[C@@H]2O[C@H](C)C[C@H](N(C)C)[C@H]2O)[C@](C)(O)C[C@@H](C)C(=O)[C@H](C)[C@@H](O)[C@]1(C)O [Erythromycin, reference compound]						100%	60.53%	34.86%	11.45%	1.64%	100%	59.9%	39.02%	12.40%	1.57%						
CC[C@H](C)C(=O)O[C@H]1C[C@@H](C)C=C2C=C[C@H](C)[C@H](CC[C@@H]3C[C@@H](O)CC(=O)O3)[C@H]21 [Lovastatin, reference compound]																					half-life [5]: 0.0747 h; Remaining Percentage (%) 0 min [5]: 100.00%; Remaining Percentage (%) 15 min [5]: 9.82%; Remaining Percentage (%) 30 min [5]: 0.00%; Remaining Percentage (%) 60 min [5]: 0.00%; Remaining Percentage (%) 120 min [5]: 0.00%
CC(C)[N+](C)(CCOC(=O)C1c2ccccc2Oc2ccccc21)C(C)C [Propantheline, reference compound]																0.246 h	100.00%	72.22%	39.13%	6.46%	Remaining Percentage (%) 120 min [3]: 0.12%; half-life [4]: 0.449 h; Remaining Percentage (%) 0 min [4]: 100.00%; Remaining Percentage (%) 15 min [4]: 72.20%; Remaining Percentage (%) 30 min [4]: 49.21%; Remaining Percentage (%) 60 min [4]: 22.77%; Remaining Percentage (%) 120 min [4]: 4.69%
